# Measurements from US10091997B2, “Composition for inhibition of insect host sensing” (Vanderbilt University, priority 2010, dated 2018).
# Key:
# Assay type in all cases: in vivo, Anopheles gambiae
# [1] = system: CpA neuron (CO2 sensitive, does not express AgORco); experiment: single sensillum recordings, capitate peg sensilla, CpA neuron; details: CO2 pulse at completion of assay, adult females
# Protocol: (§1) Single sensillum recordings were performed on 4-7 day old, non-bloodfed Anopheles gambiae females maintained on 10% sucrose and a 12/12 light dark cycle. Legs, wings and antennae were removed from cold-anesthetized females that were then restrained on double-stick tape with thread. A glass reference electrode filled with Sensillar lymph ringers (SLR)(Xu, 2005) was placed in the eye and the recording electrode filled with DMSO or VUAA1 diluted in SLR was used to puncture sensilla at their base. Responses were recorded and digitized using a Syntech IDAC-4 and analyzed with AutoSpike software (Syntech). New glass recording pipettes were used for every recording. Data was sampled at 12 kHz.
# (§2) The inventors next performed single unit, extracellular electrophysiological recordings on adult female An. gambiae to determine whether VUAA1 could activate AgORco-expressing odorant receptor neurons (ORNs) in vivo. ORNs, which express AgORco and a conventional OR are enclosed within the hair-like sensilla present on olfactory tissues. […] CpA is clearly distinguished from CpB/C by its large action potential amplitude. The action potential amplitudes of CpB and CpC are much smaller and in some preparations indistinguishable from each other; as a result, the spike activity of CpB and CpC neurons were binned for data analysis. […]
# [2] = system: AgORco-expressing neurons (CpB/C); experiment: single sensillum recordings, capitate peg sensilla, CpB/C neurons; details: delivered via glass recording electrode, adult females
# Protocol: as §1, §2
# An. gambiae larvae = experiment: larval behavioral (movement) bioassay, Ethovision
# Protocol: FIG. 9. VUAA1's larval activity threshold relative to DEET is 5 orders of magnitude lower and AgORco dependent. Larval activity in An. gambiae over 5 minutes monitored in 6-well culture plates using Ethovision (Noldus) software.
# In order to address whether VUAA1 as a non-volatile could also evoke behavioral responses from An. gambiae, the inventors tested behavioral responses to VUAA1 on individual larval stage mosquitoes by adaptation of an olfactory based bioassay recently developed at Vanderbilt (described in Liu et al., 2010). These methods are non-invasive, and easily executed using a fully automated setup with an Ethovision® camera/software system (Noldus Information Technology to quantify the overall movement of mosquito larvae in response to uniform concentrations of chemicals. In these assays, increased overall movement can be interpreted as an aversive response (akin to agitation) that are consistent with those evoked by commercially available insect repellents such as DEET.
smiles,measurement,setting,value
CCc1ccc(NC(=O)CSc2nnc(-c3cccnc3)n2CC)cc1 [VUAA1],CpA activity,[1],unchanged
same,spike frequency of CpB/C neurons,[2],increased the spike frequency of CpB/C neurons in a dose-dependent manner
same,larval behavioral responses (overall movement),"An. gambiae larvae; An. gambiae larvae, 5 minutes",robust responses
same,larval response after AgORco silencing,An. gambiae larvae; larvae treated with AgOrco siRNAs,no longer respond
same,larval response after mock or non-specific siRNA control injection,An. gambiae larvae; mock or non-specific siRNA control injection,retain their high sensitivity
same,threshold of larval responses lower than DEET,An. gambiae larvae; relative to DEET,5 orders of magnitude
